Results on three compounds are retold here after patent EP1714676A2, “Use of N-substituted-1,5-dideoxy-1,5-imino-D-glucitol compounds for treating hepatitis virus infections” (G.D. Searle LLC., priority 1999, dated 1999).

SMILES strings stand for the structures.

Data set [1] deals with woodchuck hepatitis virus (WHV). The data set is described as follows: Woodchuck model: total HBV DNA by quantitative PCR. The format is in vivo. As to conditions: 0, 12.5, 25, 50, 100 mg/kg/day BID oral, 4 weeks. The procedure:
(§1) Therefore, five groups of four animals each (all groups had both sexes, all but the control had two of each sex) were assigned to 0, 12.5, 25, 50, and 100 mg/kg/day with BID oral dosing. These were lab-reared wild animals. All animals were infected with woodchuck hepatitis virus (WHV) as neonates, and had been tested positive on serological tests for WHV surface antigen. Blood samples were drawn one week prior to dosing (-1 week), immediately before dosing (0 weeks), weekly during dosing (1, 2, 3, and 4 weeks), and after the end of dosing (5, 6, 8, and 10 weeks).
(§2) There are two measures of drug efficacy: reduction in total HBV DNA (measured by quantitative PCR), and reduction in HBV DNA from capsids with intact surface glycoproteins, which is the active form of the virus (measured by an ELISA-like immune precipitation assay followed by quantitative PCR).
The total HBV DNA levels were essentially constant over time within each animal (data not shown). There was a faint hint of a dose-response relationship with decreasing levels of virus with increasing levels of drug, except that three animals at the highest dose had very high virus levels. It is not possible to conclude that there is any relationship between dose of N-nonyl-DNJ and total HBV DNA. […]

The test system is the same in data set [2]. The data set is described as follows: Woodchuck model: immune precipitated HBV DNA (IPDNA), immune precipitation followed by quantitative PCR. It counts as in vivo. As for the experimental part:
as §1, §2
Substantial variation existed in the IPDNA assay, both between assay runs and within assay runs (data not shown). Even so, it was possible to observe and model a slope over weeks 0-4 which is generally increasing for low dose animals and decreasing for high dose animals.
Before models are fitted to the data, a log transform was applied because: 1) the variation in IPDNA increases with increasing IPDNA values; the log transformation gives values with a nearly constant variation, and 2) it is expected that drug effects will appear as a constant multiplier of the IPDNA level. Because there are zero values of IPDNA, a small value (about 1/2 of the smallest non-zero value) was added to all values before the log transform.
Two approaches were used to model the changes in slope to week with dose of N-nonyl-DNJ: a linear modeling approach and a nonlinear model. Both approaches assume that the (linear) rate of change of the Log(IPDNA) measure over the dosing period is the "right" measure to reflect the effect of the drug on the virus. Both approaches are fit in stages, and the first stage is common to both approaches. First, a simple straight line regression model is fit using weeks 0-4 to predict log(IPDNA + 10) separately for each animal by run combination. In the second stage, the response variable is the slope fitted in the first stage.
For the linear approach, a model is fit with slope to week as the response where run is considered a block, dose has a significant effect (almost all of this effect is due to a slope to dose), and the relevant error for testing the effect of dose is the variation among animals treated alike (after the adjustment for the runs as blocks). This is similar to using the calibration data within each run to first adjust each run's data to a common virus DNA concentration; the difference is that here the data from the woodchucks are used for the run adjustment rather than only the calibration data.
For the nonlinear approach, a four parameter logistic model is fit with the slope to week as the response and the dose as the predictor. Again, run is considered a block, but because no run has all weeks, it is not possible to fully reflect the blocking in the nonlinear approach. […] The average maximum slope observed was 2.71 additional Log(IPDNA µg/mL)/week, or an increase of about […], the average minimum slope observed with N-nonyl-DNJ is 0.31 fewer Log (IPDNA µg/mL)/week), or about a decrease of about […]. The slopes, the fitted model, the parameter estimates from the model, and the approximate standard errors for these parameters are all shown in Figure 3. […] Whether in woodchucks or humans, the effective dose of both the N-alkyl-DNJ and nucleoside or nucleotide antiviral agent administered in combination therewith can be administered in two equal daily subdoses (i.e., B.I.D.).

The subject of data set [3] is HepG 2.2.15 (2.2.15) cells. Description: IC-90 values taken as basis for the combostat serial dilutions. The settings on record: Hepatitis B virus, HepG2.2.15; T. Block and G. Jacob, unpublished observation. It counts as cell-based. As for the experimental part: The anti-hepatitis B virus effect of […] (3TC) alone and in combination with N-nonyl-DNJ was determined according to Korba ((1996) Antiviral Research 29(1):49-51), using the "combostat" strategy (Comstat Program, Combostat Corp., Duluth, MN). The combostat method involves serially diluting the IC-90 of each compound. The IC-90 of N-nonyl-DNJ has been determined to be between 4 and 10 µg/ml (T. Block and G. Jacob, unpublished observation). The accepted IC-90 for 3TC in HepG 2.2.15 (2.2.15) cells is 300nM to 500nM (Doong et al. (1991) Proc. Natl. Acad. Sci. USA 88:8495-8499).

The next data set has as its system HepG2.2.15 cells. The format is cell-based.
For a further data set, the system named is Hepatitis B Virus. Description: HBV secretion by chronically HBV secreting HepG2.2.15 cells (preS1 immunoprecipitation of secreted virions, PCR of viral DNA). It counts as cell-based. As to conditions: 3 days, control = 100%. As for the experimental part:
The anti-hepatitis B virus activity and effect on cell viability of a number of different N-substituted-1,5-dideoxy-1,5-imino-D-glucitol compounds were assessed using an in vitro assay employing chronically hepatitis B virus secreting HepG2.2.15 cells. The method employed was essentially that described in Block et al. (1994) Proc. Natl. Acad. Sci. USA 91:2235-2239.

Where [4] appears, read: concentration [200] (unit not given).
[5] abbreviates: concentration [1000] (unit not given).

As usually defined, the IC90 is the concentration needed for an effect of 90%.

`CCCCCCCCCN1C[C@H](O)[C@@H](O)[C@H](O)[C@H]1CO` [Compound 1, N-(n-nonyl)-1,5-dideoxy-1,5-imino-D-glucitol]: the “effect on total HBV DNA measurements” value in data set [1] is “no effect”. Also, the EC50 in data set [2] (four parameter logistic model, slope of Log(IPDNA + 10) to week vs dose) turned out to be 7.88 mg/kg/BID dose. Further, in data set [2] (weeks 0-4 of dosing), the “average maximum slope observed” value is listed as 2.71 additional Log(IPDNA µg/mL)/week, the “average minimum slope observed” value is 0.31 fewer Log (IPDNA µg/mL)/week, the “decrease of IPDNA at average minimum slope” value is listed as “about 25 %/week” and the “increase of IPDNA at average maximum slope” value was “about 150 %/week”. For the same compound, the “approximate effective monotherapy dose” value in data set [2] (woodchucks, oral) is “about 16 mg/kg/day”. Moreover, the 90% effect concentration (IC90) in data set [3] was in the range of 4 to 10 µg/mL.
In the case of `CCC(CC)CN1C[C@H](O)[C@@H](O)[C@H](O)[C@H]1CO` [Compound 3, N-(2-ethylbutyl)-1,5-dideoxy-1,5-imino-D-glucitol], in the data set with HepG2.2.15 cells, the “appearance of cells by gross microscopic examination” value is recorded as “unremarkable (healthy)”. Besides, the entries for the “Relative amount of HBV secreted, as a % of control” value in the data set on Hepatitis B Virus (setting [4]) and in the data set with Hepatitis B Virus (setting [5]) were 5.0 +/-30 (n = 3) % and 5.0 +/-20(n = 3) %, respectively.
`CCCCN1C[C@H](O)[C@@H](O)[C@H](O)[C@H]1CO` [NBDNJ, N-(n-butyl-)-1,5-dideoxy-1,5-imino-D-glucitol, reference compound]: the “Relative amount of HBV secreted, as a % of control” value in the data set on Hepatitis B Virus (setting [4]) is reported as 37.0 +/-13(n = 15) %; with Hepatitis B Virus (setting [5]) it was 3.2 +/-5(n = 15) %.
